Values joined by “and” are separate entries in the source; they are usually repeats but may differ in a detail not shown here. Equal entries are not always repeated.
Assays:
Assay in all cases: radiometric filter-binding kinase assay
EPHB3 (human) = EPHB3 (human) (UniProt P54753)
HIPK3 (human) = HIPK3 (human) (UniProt Q9H422)
MKNK2 (human) = MKNK2 (human) (UniProt Q9HBH9)
HIPK1 (human) = HIPK1 (human) (UniProt Q86Z02)
EPHA4 (human) = EPHA4 (human) (UniProt P54764)
YES1 (human) = YES1 (human) (UniProt P07947)
IGF1R (human) = IGF1R (human) (UniProt P08069)
MAPK13 (human) = MAPK13 (human) (UniProt O15264)
CLK2 (human) = CLK2 (human) (UniProt P49760)
FLT1 (human) = FLT1 (human) (UniProt P17948)
INSRR (human) = INSRR (human) (UniProt P14616)
EEF2K (human) = EEF2K (human) (UniProt O00418)
[1] = test system: PAK2 (human), Q13177 [T402E]
MAP3K7 TAB1 (human) = MAP3K7 TAB1 (human) (UniProt Q15750+O43318)
PRKACA (human) = PRKACA (human) (UniProt P17612)
PDPK1 (human) = PDPK1 (human) (UniProt O15530); conditions: compound 1.0 µM
HIPK2 (human) = HIPK2 (human) (UniProt Q9H2X6)
GCK (human) = GCK (human) (UniProt Q12851)
MAPK14 (human) = MAPK14 (human) (UniProt Q16539)
MARK3 (human) = MARK3 (human) (UniProt P27448)
TTK (human) = TTK (human) (UniProt P33981)
TTK (human), sequence (P33981 whole entry, looked up): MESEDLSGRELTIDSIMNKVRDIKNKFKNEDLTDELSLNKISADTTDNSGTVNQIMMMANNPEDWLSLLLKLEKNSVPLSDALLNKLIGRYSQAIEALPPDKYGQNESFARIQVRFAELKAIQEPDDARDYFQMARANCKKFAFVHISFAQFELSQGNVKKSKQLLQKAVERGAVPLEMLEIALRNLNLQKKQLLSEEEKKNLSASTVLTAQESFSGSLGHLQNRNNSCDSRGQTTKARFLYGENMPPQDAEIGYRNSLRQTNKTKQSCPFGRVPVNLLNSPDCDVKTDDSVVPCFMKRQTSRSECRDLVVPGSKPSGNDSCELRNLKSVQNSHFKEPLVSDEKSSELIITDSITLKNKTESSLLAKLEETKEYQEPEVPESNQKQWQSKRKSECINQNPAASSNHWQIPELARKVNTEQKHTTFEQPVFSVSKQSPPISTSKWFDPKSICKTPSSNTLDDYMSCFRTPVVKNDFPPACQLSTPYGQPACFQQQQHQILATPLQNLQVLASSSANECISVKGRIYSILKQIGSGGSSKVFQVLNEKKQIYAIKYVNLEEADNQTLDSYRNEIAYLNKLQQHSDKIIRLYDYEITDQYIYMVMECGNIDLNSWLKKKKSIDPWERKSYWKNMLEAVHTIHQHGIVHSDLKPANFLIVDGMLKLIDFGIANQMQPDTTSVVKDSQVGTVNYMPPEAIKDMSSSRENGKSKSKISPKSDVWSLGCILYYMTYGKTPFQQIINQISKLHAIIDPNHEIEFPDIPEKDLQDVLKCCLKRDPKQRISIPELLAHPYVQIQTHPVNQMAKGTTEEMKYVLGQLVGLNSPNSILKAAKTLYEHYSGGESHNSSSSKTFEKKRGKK

CDK2 CCNA2 (human) = CDK2 CCNA2 (human) (UniProt P20248+P24941)
PAK6 (human) = PAK6 (human) (UniProt Q9NQU5)
PAK6 (human), sequence (Q9NQU5 whole entry, looked up): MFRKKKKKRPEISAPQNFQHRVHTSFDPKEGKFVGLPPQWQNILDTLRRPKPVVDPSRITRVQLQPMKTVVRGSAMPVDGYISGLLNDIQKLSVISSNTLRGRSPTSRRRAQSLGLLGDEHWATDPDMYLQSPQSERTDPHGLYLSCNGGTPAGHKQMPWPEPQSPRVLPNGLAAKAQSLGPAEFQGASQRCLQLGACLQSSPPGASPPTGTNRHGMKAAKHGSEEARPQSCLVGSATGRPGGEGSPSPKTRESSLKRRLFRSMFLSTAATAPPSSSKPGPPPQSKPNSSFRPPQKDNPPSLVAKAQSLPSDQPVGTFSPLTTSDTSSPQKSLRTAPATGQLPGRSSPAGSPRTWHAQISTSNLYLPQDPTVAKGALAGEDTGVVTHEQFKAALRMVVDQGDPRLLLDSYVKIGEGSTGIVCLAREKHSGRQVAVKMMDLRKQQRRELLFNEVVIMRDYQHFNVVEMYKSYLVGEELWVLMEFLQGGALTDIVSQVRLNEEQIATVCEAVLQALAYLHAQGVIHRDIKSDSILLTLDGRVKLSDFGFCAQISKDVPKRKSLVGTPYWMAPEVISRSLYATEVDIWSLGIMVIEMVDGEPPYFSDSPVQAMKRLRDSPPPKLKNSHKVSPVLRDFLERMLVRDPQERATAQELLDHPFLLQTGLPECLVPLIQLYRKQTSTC

MAPK10 (human) = MAPK10 (human) (UniProt P53779)
MAP3K9 (human) = MAP3K9 (human) (UniProt P80192)
MAP3K9 (human), sequence (P80192 whole entry, looked up): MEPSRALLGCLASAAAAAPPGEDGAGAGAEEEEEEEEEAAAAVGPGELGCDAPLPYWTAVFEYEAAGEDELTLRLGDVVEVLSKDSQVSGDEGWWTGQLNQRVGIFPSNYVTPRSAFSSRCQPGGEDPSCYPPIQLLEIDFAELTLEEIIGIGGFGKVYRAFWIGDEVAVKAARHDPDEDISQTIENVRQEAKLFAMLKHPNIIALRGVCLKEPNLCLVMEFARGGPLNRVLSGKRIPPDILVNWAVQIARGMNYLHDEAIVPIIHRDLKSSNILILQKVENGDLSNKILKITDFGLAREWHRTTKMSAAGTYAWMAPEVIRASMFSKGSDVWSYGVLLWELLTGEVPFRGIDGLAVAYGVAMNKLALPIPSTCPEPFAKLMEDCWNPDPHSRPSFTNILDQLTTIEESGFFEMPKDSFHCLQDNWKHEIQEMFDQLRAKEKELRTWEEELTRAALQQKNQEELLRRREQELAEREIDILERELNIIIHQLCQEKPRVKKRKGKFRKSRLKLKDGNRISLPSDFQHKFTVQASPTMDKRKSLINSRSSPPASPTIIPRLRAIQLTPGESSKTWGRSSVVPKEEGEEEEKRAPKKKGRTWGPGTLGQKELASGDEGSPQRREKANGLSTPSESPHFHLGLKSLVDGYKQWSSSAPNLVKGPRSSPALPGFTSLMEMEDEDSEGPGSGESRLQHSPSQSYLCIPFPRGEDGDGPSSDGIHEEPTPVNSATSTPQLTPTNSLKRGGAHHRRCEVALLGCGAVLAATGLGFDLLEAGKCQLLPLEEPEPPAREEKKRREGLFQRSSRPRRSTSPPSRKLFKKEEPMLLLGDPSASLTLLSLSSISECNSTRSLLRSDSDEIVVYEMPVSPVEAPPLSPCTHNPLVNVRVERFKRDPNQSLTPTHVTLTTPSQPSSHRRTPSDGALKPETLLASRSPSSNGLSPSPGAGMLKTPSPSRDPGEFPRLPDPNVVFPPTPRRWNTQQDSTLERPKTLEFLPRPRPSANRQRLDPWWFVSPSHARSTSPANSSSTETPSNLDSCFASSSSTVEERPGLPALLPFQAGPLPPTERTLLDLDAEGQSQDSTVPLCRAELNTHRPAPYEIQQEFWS

[2] = test system: SGK1 (human), O00141 [S422D]
MAPK8 (human) = MAPK8 (human) (UniProt P45983)
FGFR1 (human) = FGFR1 (human) (UniProt P11362)
RPS6KA3 KD1 KD2 (human) = RPS6KA3 KD1 KD2 (human) (UniProt P51812)
NUAK1 (human) = NUAK1 (human) (UniProt O60285)
NUAK1 (human), sequence (O60285 whole entry, looked up): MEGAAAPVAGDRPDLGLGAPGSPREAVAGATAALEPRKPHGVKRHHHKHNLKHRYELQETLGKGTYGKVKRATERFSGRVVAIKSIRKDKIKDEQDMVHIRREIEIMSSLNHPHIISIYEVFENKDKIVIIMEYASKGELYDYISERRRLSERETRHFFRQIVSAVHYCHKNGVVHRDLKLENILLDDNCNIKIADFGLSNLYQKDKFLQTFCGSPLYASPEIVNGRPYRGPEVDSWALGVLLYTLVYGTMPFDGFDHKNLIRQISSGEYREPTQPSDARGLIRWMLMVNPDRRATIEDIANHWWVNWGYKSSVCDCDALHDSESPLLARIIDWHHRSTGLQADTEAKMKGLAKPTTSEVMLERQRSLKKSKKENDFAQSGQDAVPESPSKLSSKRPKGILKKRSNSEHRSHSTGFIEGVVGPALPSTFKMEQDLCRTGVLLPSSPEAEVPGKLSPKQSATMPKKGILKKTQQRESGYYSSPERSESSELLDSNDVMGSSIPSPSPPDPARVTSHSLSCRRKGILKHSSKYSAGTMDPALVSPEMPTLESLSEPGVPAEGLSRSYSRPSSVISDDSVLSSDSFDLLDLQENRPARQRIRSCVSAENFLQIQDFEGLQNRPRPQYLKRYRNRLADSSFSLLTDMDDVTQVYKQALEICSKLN

MKNK2 (human), sequence (Q9HBH9 whole entry, looked up): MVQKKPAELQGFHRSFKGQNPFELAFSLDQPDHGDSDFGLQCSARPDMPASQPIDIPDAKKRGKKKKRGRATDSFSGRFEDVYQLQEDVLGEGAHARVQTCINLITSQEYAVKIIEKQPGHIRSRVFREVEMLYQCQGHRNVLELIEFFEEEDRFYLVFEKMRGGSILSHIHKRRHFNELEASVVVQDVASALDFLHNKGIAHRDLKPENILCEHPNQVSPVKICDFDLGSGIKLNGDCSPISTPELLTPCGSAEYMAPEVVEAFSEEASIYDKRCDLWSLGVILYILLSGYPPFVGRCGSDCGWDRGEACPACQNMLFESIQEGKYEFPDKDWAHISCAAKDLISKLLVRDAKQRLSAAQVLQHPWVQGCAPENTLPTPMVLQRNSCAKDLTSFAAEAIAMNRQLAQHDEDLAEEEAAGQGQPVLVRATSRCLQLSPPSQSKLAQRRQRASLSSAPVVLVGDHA
EPHB3 (human), sequence (P54753 whole entry, looked up): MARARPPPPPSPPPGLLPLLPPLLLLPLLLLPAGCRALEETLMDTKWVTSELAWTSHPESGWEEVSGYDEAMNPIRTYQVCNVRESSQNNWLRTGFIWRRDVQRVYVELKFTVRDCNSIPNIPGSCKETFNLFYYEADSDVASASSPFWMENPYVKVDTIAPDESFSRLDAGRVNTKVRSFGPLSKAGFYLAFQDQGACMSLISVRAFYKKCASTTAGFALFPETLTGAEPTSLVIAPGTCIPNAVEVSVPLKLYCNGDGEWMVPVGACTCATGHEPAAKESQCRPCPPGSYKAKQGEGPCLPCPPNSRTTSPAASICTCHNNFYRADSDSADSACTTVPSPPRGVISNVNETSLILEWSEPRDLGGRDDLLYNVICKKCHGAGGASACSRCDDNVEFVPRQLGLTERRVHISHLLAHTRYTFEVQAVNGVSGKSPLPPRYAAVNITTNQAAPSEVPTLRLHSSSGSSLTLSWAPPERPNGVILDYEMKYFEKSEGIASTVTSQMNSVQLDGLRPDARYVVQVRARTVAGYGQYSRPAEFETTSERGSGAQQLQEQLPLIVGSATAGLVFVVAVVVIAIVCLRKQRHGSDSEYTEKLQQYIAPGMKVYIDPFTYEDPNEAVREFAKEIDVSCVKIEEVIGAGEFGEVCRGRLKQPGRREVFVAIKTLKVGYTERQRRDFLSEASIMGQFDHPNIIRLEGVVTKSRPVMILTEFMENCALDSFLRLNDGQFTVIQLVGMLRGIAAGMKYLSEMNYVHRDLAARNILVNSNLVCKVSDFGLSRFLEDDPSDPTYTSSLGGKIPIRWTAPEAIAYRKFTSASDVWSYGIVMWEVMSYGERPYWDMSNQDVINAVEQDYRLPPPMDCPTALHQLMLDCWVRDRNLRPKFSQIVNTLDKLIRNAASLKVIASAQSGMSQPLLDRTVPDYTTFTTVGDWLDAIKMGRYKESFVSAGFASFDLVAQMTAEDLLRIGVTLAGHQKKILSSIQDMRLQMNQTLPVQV

`COc1cc(C(=O)N2CCC(N3CCN(C)CC3)CC2)ccc1Nc1ncc2c(n1)N(C)c1ccccc1C(=O)N2C` showed a residual activity (EPHB3 (human); compound 1.0 µM) of 71%, a residual activity (EPHB3 (human); compound 10.0 µM) of 71% and a residual activity (HIPK3 (human); compound 1.0 µM) of 90%. The residual activity (HIPK3 (human); compound 10.0 µM) was 102%, the IC50 (MKNK2 (human)) was 7.2 µM and the residual activity (MKNK2 (human); compound 1.0 µM) was 72%. For the same molecule, the residual activity (MKNK2 (human); compound 10.0 µM) was 22%, the residual activity (HIPK1 (human); compound 1.0 µM) was 94% and the residual activity (HIPK1 (human); compound 10.0 µM) was 104%. It also gave a residual activity (EPHA4 (human); compound 1.0 µM) of 88%, a residual activity (EPHA4 (human); compound 10.0 µM) of 94% and a residual activity (YES1 (human); compound 1.0 µM) of 86%. It also gave a residual activity (YES1 (human); compound 10.0 µM) of 82%, a residual activity (IGF1R (human); compound 1.0 µM) of 107% and a residual activity (IGF1R (human); compound 10.0 µM) of 90%. The residual activity (MAPK13 (human); compound 1.0 µM) was 102%, the residual activity (MAPK13 (human); compound 10.0 µM) was 106% and the residual activity (CLK2 (human); compound 1.0 µM) was 76%. It also gave a residual activity (CLK2 (human); compound 10.0 µM) of 69%, a residual activity (FLT1 (human); compound 1.0 µM) of 64% and a residual activity (FLT1 (human); compound 10.0 µM) of 61%. The residual activity (INSRR (human); compound 1.0 µM) was 80%, the residual activity (INSRR (human); compound 10.0 µM) was 91% and the residual activity (EEF2K (human); compound 1.0 µM) was 75%. The residual activity (EEF2K (human); compound 10.0 µM) was 82%, the residual activity ([1]; compound 1.0 µM) was 97% and the residual activity ([1]; compound 10.0 µM) was 110%. It also gave a residual activity (MAP3K7 TAB1 (human); compound 1.0 µM) of 85%, a residual activity (MAP3K7 TAB1 (human); compound 10.0 µM) of 82% and a residual activity (PRKACA (human); compound 1.0 µM) of 79%. For the same molecule, the residual activity (PRKACA (human); compound 10.0 µM) was 93%, the residual activity (PDPK1 (human)) was 68% and 74% and the residual activity (HIPK2 (human); compound 1.0 µM) was 76%. For the same molecule, the residual activity (HIPK2 (human); compound 10.0 µM) was 86%, the residual activity (GCK (human); compound 1.0 µM) was 93% and the residual activity (GCK (human); compound 10.0 µM) was 99%. For the same molecule, the residual activity (MAPK14 (human); compound 1.0 µM) was 95%, the residual activity (MAPK14 (human); compound 10.0 µM) was 96% and the residual activity (MARK3 (human); compound 1.0 µM) was 100%. It also gave a residual activity (MARK3 (human); compound 10.0 µM) of 105%, a residual activity (TTK (human); compound 1.0 µM) of 84% and a residual activity (TTK (human); compound 10.0 µM) of 91%. The residual activity (CDK2 CCNA2 (human); compound 1.0 µM) was 84%, the residual activity (CDK2 CCNA2 (human); compound 10.0 µM) was 79% and the residual activity (PAK6 (human); compound 1.0 µM) was 94%. For the same molecule, the residual activity (PAK6 (human); compound 10.0 µM) was 89%, the residual activity (MAPK10 (human); compound 1.0 µM) was 92% and the residual activity (MAPK10 (human); compound 10.0 µM) was 109%. It also gave a residual activity (MAP3K9 (human); compound 1.0 µM) of 87%, a residual activity (MAP3K9 (human); compound 10.0 µM) of 96% and a residual activity ([2]; compound 1.0 µM) of 75%. It also gave a residual activity ([2]; compound 10.0 µM) of 89%, a residual activity (MAPK8 (human); compound 1.0 µM) of 85% and a residual activity (MAPK8 (human); compound 10.0 µM) of 96%. It also gave a residual activity (FGFR1 (human); compound 1.0 µM) of 83%, a residual activity (FGFR1 (human); compound 10.0 µM) of 60% and a residual activity (RPS6KA3 KD1 KD2 (human); compound 1.0 µM) of 84%. It also gave a residual activity (RPS6KA3 KD1 KD2 (human); compound 10.0 µM) of 59%, an IC50 (NUAK1 (human)) of 5 µM and a residual activity (NUAK1 (human); compound 1.0 µM) of 50%. It also gave a residual activity (NUAK1 (human); compound 10.0 µM) of 19%.
